Test [1] has as its target T1, human CB1 (Homo sapiens, UniProt P21554). In words: NanoBiT CB1 β-arrestin 2 recruitment assay. In kind it is cell-based. Also noted: expressed in transfected cells. Particulars: for Efficacy (Emax) Mean Diff: CP55,940 as reference.
Target sequence in this assay (P21554 whole entry): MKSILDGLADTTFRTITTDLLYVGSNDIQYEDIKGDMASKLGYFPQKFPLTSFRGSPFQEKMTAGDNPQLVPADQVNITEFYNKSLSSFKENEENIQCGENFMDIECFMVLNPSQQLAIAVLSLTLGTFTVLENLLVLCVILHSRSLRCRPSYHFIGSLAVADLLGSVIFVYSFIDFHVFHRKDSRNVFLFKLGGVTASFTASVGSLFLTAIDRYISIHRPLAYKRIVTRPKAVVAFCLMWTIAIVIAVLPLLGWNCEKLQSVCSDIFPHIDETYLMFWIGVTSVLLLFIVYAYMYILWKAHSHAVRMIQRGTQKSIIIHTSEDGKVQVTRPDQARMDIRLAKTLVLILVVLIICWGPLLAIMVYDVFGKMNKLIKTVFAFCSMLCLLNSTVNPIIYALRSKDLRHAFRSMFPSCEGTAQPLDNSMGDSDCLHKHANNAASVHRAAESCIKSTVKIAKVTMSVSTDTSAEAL
Target sequence in this assay (P32121 whole entry partner): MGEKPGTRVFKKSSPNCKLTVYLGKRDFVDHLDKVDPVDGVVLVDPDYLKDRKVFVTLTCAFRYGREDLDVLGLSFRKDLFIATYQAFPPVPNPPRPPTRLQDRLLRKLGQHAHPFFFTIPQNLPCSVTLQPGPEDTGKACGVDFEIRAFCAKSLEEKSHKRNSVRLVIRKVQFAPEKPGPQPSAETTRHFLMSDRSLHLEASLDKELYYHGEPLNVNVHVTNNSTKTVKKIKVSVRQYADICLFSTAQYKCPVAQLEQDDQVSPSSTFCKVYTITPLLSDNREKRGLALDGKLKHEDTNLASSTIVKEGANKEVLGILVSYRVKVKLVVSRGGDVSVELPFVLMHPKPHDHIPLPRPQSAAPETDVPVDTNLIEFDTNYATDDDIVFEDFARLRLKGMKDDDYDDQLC
Test [2] addresses T1, human CB1. Briefly: AequoScreen CB1 intracellular Ca2+ release assay. In kind it is cell-based. Set-up: host or cells: CHO-K1 (AequoZen recombinant cell line).
Target sequence in this assay (P21554 whole entry): as the sequence (P21554 whole entry) above
Test [3] deals with paclitaxel-induced peripheral neuropathy. Also noted: method as in one study (reference not given). Particulars: rats; ref one study (reference not given); cited from earlier work.
[4] abbreviates: Table 4, reference standards and mixtures, total SCRA concentration.
The mark [5] stands for this setting: Table 5, Ref (reference standard).
Where [6] appears, read: Table 5, Ref (reference standard), read-out: Potency (EC50, nM) β-arrestin 2.
Where [7] appears, read: Table 5, Ref (reference standard), read-out: Potency (EC50, nM) AequoScreen.
Where [8] appears, read: vs 5% MDMB-4en-PINACA, only concentration of final product in mixture.
The mark [9] stands for this setting: vs 5% MDMB-4en-PINACA, total concentration of SCRAs in mixture.
Setting [10] is: vs 25% MDMB-4en-PINACA, only concentration of final product in mixture.
Where [11] appears, read: vs 25% MDMB-4en-PINACA, total concentration of SCRAs in mixture.
Where [12] appears, read: vs 50% MDMB-4en-PINACA, only concentration of final product in mixture.
Setting [13] is: vs 50% MDMB-4en-PINACA, total concentration of SCRAs in mixture.
Where [14] appears, read: vs 75% MDMB-4en-PINACA, only concentration of final product in mixture.
Where [15] appears, read: vs 75% MDMB-4en-PINACA, total concentration of SCRAs in mixture.
Setting [16] is: Potency (EC50, nM) β-arrestin 2, Table 4, reference standards and precursor:final SCRA mixtures, total (combined) SCRA concentration, n ≥ 3.
Where [17] appears, read: Potency (EC50, nM) β-arrestin 2, Table 5, Ref (reference standard).
[18] abbreviates: Potency (EC50, nM) AequoScreen, Table 4, reference standards and mixtures, total SCRA concentration, n ≥ 3.
[19] abbreviates: Potency (EC50, nM) AequoScreen, Table 5, Ref (reference standard).

Several values for one entry are separate records, joined by “and”; a condition that tells them apart may be missing. Equal entries are not always repeated.

As to `CCCCCn1cc(C(=O)c2cccc3ccccc23)c2ccccc21` [JWH-018, reference compound], the results for the “Efficacy (% of CP55,940) Emax β-arrestin 2” value on human CB1 [1] (setting [4]) and at human CB1 [1] (setting [5]) were 335 % of CP55,940 and 352 % of CP55,940, respectively. The EC50 – broadly, the concentration needed to bring the measured effect to its halfway point – on human CB1 [1] (Table 4, reference standards and precursor:final SCRA mixtures, total (combined) SCRA concentration, n ≥ 3, read-out: Potency (EC50, nM) β-arrestin 2) stood at 9.55 nM; at human CB1 [1] (setting [6]) it was 11 nM; on human CB1 [2] (Table 4, reference standards and mixtures, total SCRA concentration, n ≥ 3, read-out: Potency (EC50, nM) AequoScreen), 5.14 nM; at human CB1 [2] (setting [7]) it was 13.5 nM. The “Efficacy (% of JWH-018) Emax AequoScreen” value on human CB1 [2] (setting [4]) was 97.6 % of JWH-018; at human CB1 [2] (setting [5]), 99.8 % of JWH-018.
In the case of `C=CCCCn1nc(C(=O)N[C@H](C(=O)OC)C(C)(C)C)c2ccccc21` [100% MDMB-4en-PINACA], the “Efficacy (Emax) Mean Diff” value at human CB1 [1] (setting [8]) is on record as -14.08; at human CB1 [1] (setting [9]), -3.010; at human CB1 [1] (setting [10]), -32.68; at human CB1 [1] (setting [11]), -24.05; at human CB1 [1] (setting [12]), -21.46; on human CB1 [1] (setting [13]), -9.133. The “Efficacy (Emax) Mean Diff” value was found to be 14.76 at human CB1 [1] (setting [14]) and 26.09 at human CB1 [1] (setting [15]).
Consider `CCCCn1nc(C(=O)N[C@H](C(N)=O)C(C)(C)C)c2ccccc21` [100% ADB-BUTINACA], for which the “Efficacy (Emax) Mean Diff” value is 76.63 at human CB1 [1] (vs 5% ADB-BUTINACA, only concentration of final product in mixture); 98.60 on human CB1 [1] (vs 5% ADB-BUTINACA, total concentration of SCRAs in mixture); 52.66 at human CB1 [1] (vs 25% ADB-BUTINACA, only concentration of final product in mixture); 66.35 on human CB1 [1] (vs 25% ADB-BUTINACA, total concentration of SCRAs in mixture); 144.9 at human CB1 [1] (vs 50% ADB-BUTINACA, only concentration of final product in mixture); 155.6 at human CB1 [1] (vs 50% ADB-BUTINACA, total concentration of SCRAs in mixture). Further, the “Efficacy (Emax) Mean Diff” value on human CB1 [1] (vs 75% ADB-BUTINACA, only concentration of final product in mixture) is 60.28; on human CB1 [1] (vs 75% ADB-BUTINACA, total concentration of SCRAs in mixture), 70.25.
On to `C=CCCCn1nc(C(=O)NC(C(=O)OC)C(C)(C)C)c2ccccc21` (stereo not shown) [MDMB-4en-PINACA, methyl 3,3-dimethyl-2-(1-(pent-4-en-1-yl)-1H-indazole-3-carboxamido)butanoate], for which the EC50 was 1.8 nM on human CB1 [1] (setting [16]); 1.8 nM on human CB1 [1] (setting [17]); 1.2 nM and 1.17 nM on human CB1 [2] (setting [18]); 1.89 nM at human CB1 [2] (setting [19]). In addition, the “Efficacy (% of CP55,940) Emax β-arrestin 2” value at human CB1 [1] (setting [4]) was 1088 % of CP55,940 and 1090 % of CP55,940; on human CB1 [1] (setting [5]), 1090 % of CP55,940. The “Efficacy (% of JWH-018) Emax AequoScreen” value at human CB1 [2] (setting [4]) is reported as 104 % of JWH-018; on human CB1 [2] (setting [5]), 109 % of JWH-018.
For the molecule `CC(C)(C)C(NC(=O)c1n[nH]c2ccccc12)C(N)=O` (stereo not shown) [ADB-INACA], the “Analgesic effects on paclitaxel-induced peripheral neuropathy” value in test [3] is on record as “analgesic effects”.
Turning to `COC(=O)C(NC(=O)c1n[nH]c2ccccc12)C(C)(C)C` (stereo not shown) [MDMB-INACA], the “Efficacy (% of CP55,940) Emax β-arrestin 2” value at human CB1 [1] (setting [5]) is 294 % of CP55,940; on human CB1 [1] (Table 5, Seizure (precursor seized in Switzerland)), 438 % of CP55,940. In addition, the EC50 on human CB1 [1] (setting [6]) amounted to 2400 nM; at human CB1 [1] (Table 5, Seizure (precursor seized in Switzerland), read-out: Potency (EC50, nM) β-arrestin 2) it was 2190 nM; on human CB1 [2] (setting [7]) it was 11200 nM; on human CB1 [2] (Table 5, Seizure (precursor seized in Switzerland), read-out: Potency (EC50, nM) AequoScreen), 7610 nM. In test [3], the “Analgesic effects on paclitaxel-induced peripheral neuropathy” value was “analgesic effects”.
Turning to `COC(=O)[C@@H](NC(=O)c1n[nH]c2ccccc12)C(C)(C)C` [MDMB-INACA (ref)], the “Efficacy (Emax) Mean Diff” value is given as -144.0 at human CB1 [1] (vs MDMB-INACA (seizure)) and 1.797 on human CB1 [2] (vs MDMB-INACA (seizure), CP55,940 as reference).
As to `CCCCn1nc(C(=O)NC(C(N)=O)C(C)(C)C)c2ccccc21` (stereo not shown) [ADB-BUTINACA], the EC50 on human CB1 [1] (setting [16]) was 6.7 nM and 6.73 nM; at human CB1 [1] (setting [17]) it was 5.65 nM; on human CB1 [2] (setting [18]), 5.6 nM and 5.64 nM; at human CB1 [2] (setting [19]), 7.27 nM. The “Efficacy (% of CP55,940) Emax β-arrestin 2” value was 1282 % of CP55,940 and 1280 % of CP55,940 at human CB1 [1] (setting [4]); 1330 % of CP55,940 on human CB1 [1] (setting [5]). The “Efficacy (% of JWH-018) Emax AequoScreen” value on human CB1 [2] (setting [4]) is 105 % of JWH-018; on human CB1 [2] (setting [5]), 111 % of JWH-018.
As to `COC(=O)[C@@H](NC(=O)c1n[nH]c2ccccc12)C(C)(C)C` [100% MDMB-INACA], the “Efficacy (Emax) Mean Diff” value at human CB1 [1] (setting [8]) came to 550.8; at human CB1 [1] (setting [9]), 539.7; on human CB1 [1] (setting [10]) it was 569.4; at human CB1 [1] (setting [11]), 560.7; on human CB1 [1] (setting [12]) it was 558.2; on human CB1 [1] (setting [13]), 545.8. The “Efficacy (Emax) Mean Diff” value at human CB1 [1] (setting [14]) stood at 521.9; at human CB1 [1] (setting [15]), 510.6; at human CB1 [1] (vs 100% MDMB-4en-PINACA, only concentration of final product in mixture), 536.7; at human CB1 [1] (vs 100% MDMB-4en-PINACA, total concentration of SCRAs in mixture), 536.7; on human CB1 [2] (vs 5% MDMB-4en-PINACA, only concentration of final product in mixture, JWH-018 as reference), 2.037; at human CB1 [2] (vs 5% MDMB-4en-PINACA, total concentration of SCRAs in mixture, JWH-018 as reference) it was 6.744. Also, the “Efficacy (Emax) Mean Diff” value is reported as -0.07601 on human CB1 [2] (vs 25% MDMB-4en-PINACA, only concentration of final product in mixture, JWH-018 as reference); 2.036 on human CB1 [2] (vs 25% MDMB-4en-PINACA, total concentration of SCRAs in mixture, JWH-018 as reference); 9.030 on human CB1 [2] (vs 50% MDMB-4en-PINACA, only concentration of final product in mixture, JWH-018 as reference); -0.07656 at human CB1 [2] (vs 50% MDMB-4en-PINACA, total concentration of SCRAs in mixture, JWH-018 as reference); 6.745 at human CB1 [2] (vs 75% MDMB-4en-PINACA, only concentration of final product in mixture, JWH-018 as reference); 9.029 at human CB1 [2] (vs 75% MDMB-4en-PINACA, total concentration of SCRAs in mixture, JWH-018 as reference). Besides, the “Efficacy (Emax) Mean Diff” value on human CB1 [2] (vs 100% MDMB-4en-PINACA, only concentration of final product in mixture, JWH-018 as reference) was 8.229; at human CB1 [2] (vs 100% MDMB-4en-PINACA, total concentration of SCRAs in mixture, JWH-018 as reference), 8.229.

Source of the values: PMC12408681, “Tail-less precursors in synthetic cannabinoid production: investigating a clandestine laboratory, seized samples, and CB1 activity” (Archives of Toxicology, 2025).
